This assay deals with Human subcutaneous adipocytes. The experiment in a line: Adipocyte lipolysis assay (suppression of isoproterenol-stimulated fatty acid release). It is filed as cell-based. The settings on record: Homo sapiens, Adipocyte; test compound concentration giving 50% fatty acid concentration reduction percentage in culture supernatant; 1 μM isoproterenol, 5 hours incubation; reduction by 100 μM nicotinic acid set at 100%. The source says: The suppressive or promoting activity of a test compound on the lipolysis of neutral fat can be assayed according to an adipocyte lipolysis assay as a cell line assay. If a beta adrenoceptor is stimulated with isoproterenol or the like in adipocytes, lipolysis action in which neutral fat accumulated in the cells is decomposed into fatty acid and glycerol can be promoted, and as a result, the amount of such fatty acid or glycerol released out of the cells can be increased. When a test compound that suppresses lipolysis is added to adipocytes, lipolysis-promoting action by isoproterenol stimulation is reduced, and the concentration of fatty acid or glycerol in a medium is decreased. Accordingly, the suppressive activity of a test compound on lipolysis can be assayed by measuring the reduction percentage of the fatty acid concentration or glycerol concentration in a culture supernatant. Likewise, the promoting activity of a test compound on lipolysis can be assayed by measuring the increase percentage of the fatty acid concentration or glycerol concentration in a medium.
• (1) Human subcutaneous adipocytes disseminated onto a 96 well (Dainippon Sumitomo Pharma Co., Ltd.: F-SA-1096) • (2) Adipocyte Maintenance Medium (Dainippon Sumitomo Pharma Co., Ltd.: AM 1) • (3) Lipolysis assay buffer [137 mM NaCl, 5 mM KCl, 4.2 mM NaHCO3, 1.3 mM CaCl2, 0.5 mM KH2PO4, 0.5 mM MgCl2, 0.5 mM MgSO4, 5 mM Glucose, 20 mM Hepes (pH 7.4), 1% BSA, 1 μM Isoproterenol] • (4) NEFA-C Test Wako (Wako Pure Chemical Industries, Ltd.) Preparation of Screening Materials
In this operation, the actual concentration of the test compound in the buffer was 1/1000 of the above-described concentration.
The above-described subcutaneous adipocytes were cultured in 200 μL of an Adipocyte Maintenance Medium in each well for 7 days. During this culturing operation, the medium was exchanged with a fresh one every 3 days. The medium was exchanged by discarding 100 μL of the medium in each well and then adding 100 μL of a fresh Adipocyte Maintenance Medium to the well. Thereafter, the adipocytes were washed with a Lipolysis assay buffer. Subsequently, 50 μL of a Lipolysis assay buffer that contained the above-described test compound was added to each well, and it was then incubated for 5 hours. In order to obtain the measurement value of the test compound in each concentration, 5 wells on a 96-well plate were used with respect to each concentration. As a positive control of a compound having lipolysis suppressive activity, nicotinic acid was used with reference to a previous report [Green A et. al., J. Biol. Chem., 1992, 267(5), 3223-9].
40 μL of a culture supernatant was extracted from each well, and the fatty acid concentration in the supernatant was then measured. Such fatty acid concentration was measured as follows, using the above-described NEFA-C Test Wako. 80 μL of liquid A included in the kit was added to 40 μL of the culture supernatant extracted from each well, and the obtained mixture was then incubated at 37° C. for 10 minutes. Thereafter, 160 μL of liquid B was added, and the obtained mixture was further incubated at 37° C. for 10 minutes. Thereafter, the absorbance at a wavelength of 550 nm was measured. At the same time, a standard fatty acid solution included in the kit was diluted to prepare a dilution series having a volume of 40 μL. According to the same operations as described above, liquid A and liquid B were added, and the absorbance was then measured. In accordance with instructions included with the kit, a calibration curve was prepared. Based on the thus prepared calibration curve, the fatty acid concentration in the culture supernatant was calculated. The reduction percentage of the fatty acid concentration was calculated with the following formula, setting the reduction percentage obtained by addition of 100 μM (final concentration) of nicotinic acid at 100%. […]
A word on the IC50: it is the concentration that inhibits the measured activity by half. With `CCn1cc(NC(=O)CCc2noc(-c3ccc(O)cc3)c2C(F)(F)F)c(C(=O)O)c1` [Example 53, 4-{3-[4-Trifluoromethyl-5-(4-hydroxyphenyl)isoxazol-3-yl]propanoyl}amino-1-ethylpyrrole-3-carboxylic acid], the midpoint of inhibition, the IC50, lay at 138 nM.

With `CCn1cc(NC(=O)CCc2onc(-c3ccc(O)cc3)c2C(F)F)c(C(=O)O)c1` [Example 65, 4-{3-[4-Difluoromethyl-3-(4-hydroxyphenyl)isoxazol-5-yl]propanoyl}amino-1-ethylpyrrole-3-carboxylic acid], the IC50 came to 18 nM.

`CCCn1cc(NC(=O)CCc2cc(-c3ccc(O)cc3)no2)c(C(=O)O)c1` [Example 61, 4-{3-[3-(4-Hydroxyphenyl)isoxazol-5-yl]propanoyl}amino-1-propylpyrrole-3-carboxylic acid] showed an IC50 of 22 nM.

Compound `CCn1cc(NC(=O)CCc2onc(-c3ccc(O)cc3F)c2Cl)c(C(=O)O)c1` [Example 43, 4-{3-[4-Chloro-3-(4-hydroxy-2-fluorophenyl)isoxazol-5-yl]propanoyl}amino-1-ethylpyrrole-3-carboxylic acid] yielded an IC50 of 7 nM.

`Cn1cc(NC(=O)CCc2cnc(-c3ccc(O)c(Cl)c3)s2)c(C(=O)O)c1` [Example 10, 4-{3-[2-(3-Chloro-4-hydroxyphenyl)thiazol-5-yl]propanoyl}amino-1-methylpyrrole-3-carboxylic acid] yielded an IC50 of 151 nM.

Compound `CCn1cc(NC(=O)C(C)Cc2cnc(-c3ccc(O)cc3)s2)c(C(=O)O)c1` (centres unmarked) [Example 54, 4-{3-[2-(4-Hydroxyphenyl)thiazol-5-yl]-2-methylpropanoyl}amino-1-ethylpyrrole-3-carboxylic acid] yielded an IC50 of 228 nM.

Turning to `CCn1cc(NC(=O)C(F)Cc2cnn(-c3ccccc3)c2C)c(C(=O)O)c1` (centres unmarked) [Example 26, 4-[2-Fluoro-3-(5-methyl-1-phenylpyrazol-5-yl)propanoyl]amino-1-ethylpyrrole-3-carboxylic acid], the IC50 is 10 nM.

On to `Cn1cc(NC(=O)CCc2nc(-c3ccc(O)cn3)no2)c(C(=O)O)c1` [Example 3, 4-{3-[(5-Hydroxypyridin-2-yl)-1,2,4-oxadiazol-5-yl]propanoyl}amino-1-methylpyrrole-3-carboxylic acid], for which the IC50 was 7 nM. The IC50 values of the last two compounds are within 1.5-fold of each other.

The compound `Cn1cc(NC(=O)CCc2sc(-c3ccc(O)cc3)nc2Cl)c(C(=O)O)c1` [Example 8, 4-{3-[4-Chloro-2-(4-hydroxyphenyl)thiazol-5-yl]propanoyl}amino-1-methylpyrrole-3-carboxylic acid] displayed an IC50 of 76 nM.

With `CCc1c(-c2ccccc2)ncn1CCC(=O)Nc1cn(CC)cc1C(=O)O` [Example 28, 4-{3-(4-Phenyl-5-ethylimidazol-1-yl)propanoyl}amino-1-ethylpyrrole-3-carboxylic acid], the midpoint of inhibition, the IC50, lay at 19 nM.

`CCn1cc(NC(=O)CCc2onc(-c3ccc(O)cc3)c2C)c(C(=O)O)c1` [Example 38, 4-{3-[(4-Hydroxyphenyl)-4-methylisoxazol-5-yl]propanoyl}amino-1-ethylpyrrole-3-carboxylic acid] showed a half-inhibitory concentration (IC50) of 4 nM.

For `CCn1cc(NC(=O)CCc2cc(-c3ccc(O)cc3)no2)c(C(=O)O)c1` [Example 44, 4-{3-[3-(4-Hydroxyphenyl)isoxazol-5-yl]propanoyl}amino-1-ethylpyrrole-3-carboxylic acid], the IC50 was 8 nM.

`O=C(CCc1nc(-c2ccc(O)cn2)no1)Nc1cn(Cc2cc(F)cc(F)c2)cc1C(=O)O` [Example 15, 4-{3-[(5-Hydroxypyridin-2-yl)-1,2,4-oxadiazol-5-yl]propanoyl}amino-1-(3,5-difluorobenzyl)pyrrole-3-carboxylic acid] displayed an IC50 of 2 nM.

Compound `CCn1cc(NC(=O)C(F)Cc2cnc(-c3ccc(O)cc3)s2)c(C(=O)O)c1` (racemic) [Example 22, 4-{3-[2-(4-Hydroxyphenyl)thiazol-5-yl]-2-fluoropropanoyl}amino-1-ethylpyrrole-3-carboxylic acid] yielded an IC50 of 29 nM. Against the preceding compound, the IC50 is about 14-fold higher.

Consider `O=C(CCc1cnc(-c2ccccc2)s1)Nc1cn(CCF)cc1C(=O)O` [Example 14, 4-[3-(2-Phenylthiazol-5-yl)propanoyl]amino-1-(2-fluoroethyl)pyrrole-3-carboxylic acid], for which half-maximal inhibition (IC50) required 255 nM.

Compound `Cn1cc(NC(=O)CCc2sc(-c3ccccc3)nc2Cl)c(C(=O)O)c1` [Example 7, 4-[3-(4-Chloro-2-phenylthiazol-5-yl)propanoyl]amino-1-methylpyrrole-3-carboxylic acid] came in with an IC50 of 1500 nM.

For `CCn1cc(NC(=O)CCc2snc(-c3ccc(O)cc3)c2Cl)c(C(=O)O)c1` [Example 57, 4-{3-[4-Chloro-3-(4-hydroxyphenyl)isothiazol-5-yl]propanoylamino}-1-ethylpyrrole-3-carboxylic acid], half-maximal inhibition (IC50) was put at 161 nM. This IC50 is about 9.3-fold lower than that of the compound before.

As for `O=C(CCc1nc(-c2ccc(O)cc2)no1)Nc1cn(Cc2cc(F)cc(F)c2)cc1C(=O)O` [Example 16, 4-{3-[(4-Hydroxyphenyl)-1,2,4-oxadiazol-5-yl]propanoyl}amino-1-(3,5-difluorobenzyl)pyrrole-3-carboxylic acid], the IC50 turned out to be 29 nM. Compared with the last compound, the IC50 is about 5.6-fold lower.

Turning to `COCCCn1cc(NC(=O)CCc2cnc(-c3ccc(O)cc3)s2)c(C(=O)O)c1` [Example 18, 4-{3-[2-(4-Hydroxyphenyl)thiazol-5-yl]propanoyl}amino-1-(3-methoxypropyl)pyrrole-3-carboxylic acid], the IC50 was determined as 9 nM.

The compound `CCCCn1cc(NC(=O)CCc2cc(-c3ccc(O)cc3)no2)c(C(=O)O)c1` [Example 47, 4-{3-[3-(4-Hydroxyphenyl)isoxazol-5-yl]propanoyl}amino-1-butylpyrrole-3-carboxylic acid] yielded an IC50 of 8 nM.

Consider `Cn1cc(NC(=O)CCc2cnc(-c3ccc(O)c(F)c3)s2)c(C(=O)O)c1` [Example 9, 4-{3-[2-(4-Hydroxy-3-fluorophenyl)thiazol-5-yl]propanoyl}amino-1-methylpyrrole-3-carboxylic acid], for which the IC50 was 125 nM.

Compound `CCn1cc(NC(=O)C(F)(F)Cc2cc(-c3ccc(O)cc3)on2)c(C(=O)O)c1` [Example 64, 4-{3-[5-(4-Hydroxyphenyl)isoxazol-3-yl]-2,2-difluoropropanoyl}amino-1-ethylpyrrole-3-carboxylic acid] registered an IC50 of 29 nM. Against the preceding compound, the IC50 is about 4.3-fold lower.

`Cn1cc(NC(=O)CCc2ccc(-c3ccc(O)cc3)cc2)c(C(=O)O)c1` [Example 1, 4-{3-[4-(4-Hydroxyphenyl)phenyl]propanoyl}amino-1-methylpyrrole-3-carboxylic acid]: the IC50 was 1100 nM.

`CCn1cc(NC(=O)C(F)(F)Cc2cnc(-c3ccc(O)cc3)s2)c(C(=O)O)c1` [Example 39, 4-{3-[2-(4-Hydroxyphenyl)thiazol-5-yl]-2,2-difluoropropanoyl}amino-1-ethylpyrrole-3-carboxylic acid] showed an IC50 of 40 nM.

The compound `CCCCn1cc(NC(=O)CCc2cnc(-c3ccc(O)cn3)o2)c(C(=O)O)c1` [Example 11, 4-{3-[2-(5-Hydroxypyridin-2-yl)oxazol-5-yl]propanoyl}amino-1-butylpyrrole-3-carboxylic acid] displayed an IC50 of 88 nM.

The compound `CCn1cc(NC(=O)CCc2sc(-c3ccc(O)cc3O)nc2Cl)c(C(=O)O)c1` [Example 21, 4-{3-[4-Chloro-2-(2,4-dihydroxyphenyl)thiazol-5-yl]propanoyl}amino-1-ethylpyrrole-3-carboxylic acid] had a 50% inhibitory concentration (IC50) of 41 nM. This IC50 is about 2.1-fold lower than that of the compound before.

For the origin of these results see patent publication US8648103B2, “Nitrogen-containing aromatic heterocyclyl compound” (Daiichi Sankyo Company, Limited, priority 2008, dated 2014).
